Values after ≈ are worked out from the molar mass of the structure shown. Where two headings read alike, the source gives them in different places.
Experiments:
[1] = test system: Selenastrum capricornutum; assay: Rapid bioassay screening for selective algicides (LOEC, LCIC); format: cell-based; conditions: for MIC / minimal effective concentration: Selenastrum capricornutum; for MIC: read-out: LCIC (lowest-complete-inhibition concentration), Selenastrum capricornutum; for minimal effective concentration: read-out: LOEC (lowest-observed-effect concentration), Selenastrum capricornutum
Excerpt: (§1) These were screened in the laboratory by the method of Schrader et al. (K. K. Schrader, M. Q. de Regt, C. S. Tucker and S. O. Duke, A rapid bioassay for selective algicides. Weed Technol. (1997), vol. 11, pp. 767-774) for algicidal activity.
(§2) The anthraquinone derivatives were screened for selective toxicity towards Oscillatoria perornata, previously isolated from a Mississippi catfish pond, using the method of Schrader et al. (1997). The green alga Selenastrum capricornutum (obtained from the United States Environmental Protection Agency, Corvallis, Oreg.) was used as the representative green algal species in the bioassay since it is a common species found in southeastern United States catfish ponds. Absorbance readings were graphed, and graphs were used to determine the LOEC (lowest-observed-effect concentration) and the LCIC (lowest-complete-inhibition concentration) for each anthraquinone analog. In addition, a 96-hour 50% inhibition concentration (IC50) was determined for DNA1-19-1 and DNA2-59-1 by using the method described by Schrader et al. (1998b). Stock solutions of DNA1-19-1 and DNA2-59-1 were prepared so that final concentrations screened for 96-hour IC50 determinations were as follows: 1) 0, 0.01, 0.033, 0.1, 0.333, 1.0, 3.3, and 10.0 μM DNA1-19-1 for both O. perornata and S. capricornutum; 2) 0, 0.003, 0.01, 0.033, 0.1, 0.333, 1.0, and 3.333 μM DNA2-59-1 for O. perornata; and 3) 0, 0.1, 0.333, 1.0, 3.333, 10.0, 33.333, and 100.0 μM DNA2-59-1 for S. capricornutum. Estimation of the IC50 was determined by plotting 96-hour absorbance readings against logarithmic dilution values of the anthraquinone analogs. The screening results of the anthraquinone derivatives and commercially available analogs of anthraquinone are presented in Tables 1 and 2, respectively. The results in Table 1 reveal that DNA1-19-1 and DNA2-59-1 are the most promising analogs since these two compounds had the lowest LOEC and LCIC values for O. perornata (10 nM and 100 nM, respectively). Based upon IC50 results in Table 3, DNA2-59-1 appears to be more toxic and selective towards O. perornata than DNA1-19-1.
as §2, with “(A rapid bioassay for selective algicides. Weed Technol. (1997), vol. 11, pp. 767-774).” for “(1997).”, “(K. K. Schradar, M. Q. de Regt, P. D. Tidwell, C. S. Tucker and S. O. Duke, Selective growth inhibition of the musty-odor producing cyanobacterium Oscillatoria cf. chalybea by natural compounds. Bull. Environ. Contam. Toxicol. (1998a), vol.60, pp. 651-658).” for “(1998b).”, “The screening results of the anthraquinone derivatives and commercially available analogs of anthraquinone are presented in Tables 1 and 2, respectively. The results in Table 1 reveal that DNA1-19-1 and DNA2-59-1 are the most promising analogs since these two compounds had the lowest LOEC and LCIC values for O. perornata (10 nM and 100 nM, respectively). Based upon IC50 results in Table 3, DNA2-59-1 appears to be more toxic and selective towards O. perornata than DNA1-19-1.” left out

[2] = test system: Oscillatoria perornata; assay: as above; format: cell-based; conditions: for MIC: read-out: LCIC (lowest-complete-inhibition concentration), Oscillatoria perornata; for minimal effective concentration: read-out: LOEC (lowest-observed-effect concentration), Oscillatoria perornata
Excerpt: as §1, §2
as §2, with “(A rapid bioassay for selective algicides. Weed Technol. (1997), vol. 11, pp. 767-774).” for “(1997).”, “(K. K. Schradar, M. Q. de Regt, P. D. Tidwell, C. S. Tucker and S. O. Duke, Selective growth inhibition of the musty-odor producing cyanobacterium Oscillatoria cf. chalybea by natural compounds. Bull. Environ. Contam. Toxicol. (1998a), vol.60, pp. 651-658).” for “(1998b).”, “The screening results of the anthraquinone derivatives and commercially available analogs of anthraquinone are presented in Tables 1 and 2, respectively. The results in Table 1 reveal that DNA1-19-1 and DNA2-59-1 are the most promising analogs since these two compounds had the lowest LOEC and LCIC values for O. perornata (10 nM and 100 nM, respectively). Based upon IC50 results in Table 3, DNA2-59-1 appears to be more toxic and selective towards O. perornata than DNA1-19-1.” left out

[3] = Planktothrix perornata, rapid screening

## O=C1c2ccccc2C(=O)c2c(O)ccc(O)c21 [1,4-dihydroxyanthraquinone, reference compound]
[1]; rapid screening
  MIC: > 100 µM
[2]; [3]
  MIC: > 100 µM

## O=C1c2cccc(O)c2C(=O)c2c(O)cccc21 [1,8-dihydroxyanthraquinone, reference compound]
[1]; rapid screening
  MIC: > 100 µM
[2]; [3]
  MIC: 100 µM (≈ 24 µg/mL)

## CNc1cccc2c1C(=O)c1ccccc1C2=O [1-(methylamino) anthraquinone, reference compound]
[1]
  MIC: > 100 µM
[2]; Planktothrix perornata
  MIC: 100 µM (≈ 23.7 µg/mL)

## Nc1cccc2c1C(=O)c1ccccc1C2=O [1-aminoanthraquinone, reference compound]
[1]; rapid screening
  MIC: > 100 µM
[2]; [3]
  MIC: 100 µM (≈ 22.3 µg/mL)

## Nc1ccc2c(c1)C(=O)c1ccccc1C2=O [2-aminoanthraquinone, reference compound]
[1]; rapid screening
  MIC: > 100 µM
[2]; [3]
  MIC: > 100 µM

## O=C1c2ccccc2C(=O)c2cc(CO)ccc21 [2-hydroxymethyl-anthraquinone, reference compound]
[1]
  MIC: 100 µM (≈ 23.8 µg/mL)
[2]; Planktothrix perornata
  MIC: 10 µM (≈ 2.38 µg/mL)

## CN(C)CCCNCc1ccc2c(c1)C(=O)c1ccccc1C2=O.O=P(O)(O)O.O=P(O)(O)O [DNA2-23-1, 2-[Methylamino-N-(propyl-3′-N,N-dimethylamino)]-9,10-anthraquinone diphosphate]
[1]; rapid screening
  LCIC (lowest-complete-inhibition concentration), Selenastrum capricornutum: 10,000 nM
  LOEC (lowest-observed-effect concentration), Selenastrum capricornutum: 10,000 nM
[2]; rapid screening
  LCIC (lowest-complete-inhibition concentration), Oscillatoria perornata: 1,000 nM
  minimal effective concentration: 0.1 µM

## CCN(CC)CCCNCc1ccc2c(c1)C(=O)c1ccccc1C2=O.O=P(O)(O)O.O=P(O)(O)O [DNA2-25-1, 2-[Methylamino-N-(propyl-3′-N,N-diethylaminopropyl)]-9,10-anthraquinone diphosphate]
[1]; rapid screening
  LCIC (lowest-complete-inhibition concentration), Selenastrum capricornutum: 10,000 nM
  LOEC (lowest-observed-effect concentration), Selenastrum capricornutum: 10,000 nM
[2]; rapid screening
  MIC: 0.1 µM
  minimal effective concentration: 0.1 µM

## CC(C)N(Cc1ccc2c(c1)C(=O)c1ccccc1C2=O)C(C)C.O=P(O)(O)O [DNA2-49-1, 2-[Methylamino-N,N-(di-1′-methylethyl)]-9,10-anthraquinone monophosphate]
[1]; rapid screening
  LCIC (lowest-complete-inhibition concentration), Selenastrum capricornutum: 1e+06 nM
  LOEC (lowest-observed-effect concentration), Selenastrum capricornutum: 100,000 nM
[2]; rapid screening
  LCIC (lowest-complete-inhibition concentration), Oscillatoria perornata: 1,000 nM
  LOEC (lowest-observed-effect concentration), Oscillatoria perornata: 1,000 nM

## CCN(CC)Cc1ccc2c(c1)C(=O)c1ccccc1C2=O.O=P(O)(O)O [DNA2-51-1, 2-[Methylamino-N,N-(diethyl)]-9,10-anthraquinone monophosphate]
[1]; rapid screening
  LCIC (lowest-complete-inhibition concentration), Selenastrum capricornutum: 100,000 nM
  LOEC (lowest-observed-effect concentration), Selenastrum capricornutum: 10,000 nM
[2]; rapid screening
  MIC: 0.1 µM
  minimal effective concentration: 0.1 µM

## CCCC(C)NCc1ccc2c(c1)C(=O)c1ccccc1C2=O.O=P(O)(O)O (stereo not shown) [DNA2-53-1, 2-[Methylamino-N-(1′-methylbutyl)]-9,10-anthraquinone monophosphate]
[1]; rapid screening
  LCIC (lowest-complete-inhibition concentration), Selenastrum capricornutum: 100,000 nM
  LOEC (lowest-observed-effect concentration), Selenastrum capricornutum: 100,000 nM
[2]; rapid screening
  MIC: 0.1 µM
  minimal effective concentration: 0.1 µM

## CCCCCNCc1ccc2c(c1)C(=O)c1ccccc1C2=O.O=P(O)(O)O [DNA2-55-1, 2-[Methylamino-N-(pentyl)]-9,10-anthraquinone monophosphate]
[1]; rapid screening
  LCIC (lowest-complete-inhibition concentration), Selenastrum capricornutum: 100,000 nM
  LOEC (lowest-observed-effect concentration), Selenastrum capricornutum: 100,000 nM
[2]; rapid screening
  LCIC (lowest-complete-inhibition concentration), Oscillatoria perornata: 1,000 nM
  LOEC (lowest-observed-effect concentration), Oscillatoria perornata: 1,000 nM

## CCCCN(CCCC)Cc1ccc2c(c1)C(=O)c1ccccc1C2=O.O=P(O)(O)O [DNA2-57-1, 2-[Methylamino-N,N-(dibutyl)]-9,10-anthraquinone monophosphate]
[1]; rapid screening
  LCIC (lowest-complete-inhibition concentration), Selenastrum capricornutum: 1e+06 nM
  LOEC (lowest-observed-effect concentration), Selenastrum capricornutum: 100,000 nM
[2]; rapid screening
  LCIC (lowest-complete-inhibition concentration), Oscillatoria perornata: 1,000 nM
  LOEC (lowest-observed-effect concentration), Oscillatoria perornata: 1,000 nM

## CCN(CC)CCCNC(C)c1ccc2c(c1)C(=O)c1ccccc1C2=O (stereo not shown) [DNA2-87-1, 2-[1′-Amino-N-(propyl-3″-N,N-diethylamino)ethyl]-9,10-anthraquinone]
[1]; rapid screening
  LCIC (lowest-complete-inhibition concentration), Selenastrum capricornutum: 100,000 nM
  LOEC (lowest-observed-effect concentration), Selenastrum capricornutum: 100,000 nM
[2]; rapid screening
  LCIC (lowest-complete-inhibition concentration), Oscillatoria perornata: 100,000 nM
  LOEC (lowest-observed-effect concentration), Oscillatoria perornata: 1,000 nM

## CC(C)NC(C)c1ccc2c(c1)C(=O)c1ccccc1C2=O (stereo not shown) [DNA2-89-1, 2-[1′-Amino-N-(1′-methylethyl)ethyl]-9,10-anthraquinone 9,10-anthraquinone]
[1]; rapid screening
  LCIC (lowest-complete-inhibition concentration), Selenastrum capricornutum: 100,000 nM
  LOEC (lowest-observed-effect concentration), Selenastrum capricornutum: 100,000 nM
[2]; rapid screening
  LCIC (lowest-complete-inhibition concentration), Oscillatoria perornata: 1,000 nM
  LOEC (lowest-observed-effect concentration), Oscillatoria perornata: 1,000 nM

## CCN(CC)CCCNc1cccc2c1C(=O)c1ccccc1C2=O.O=P(O)(O)O [DNA2-91-1, 1-amino-N-(propyl-3′-N,N-diethylamino)-9,10-anthraquinone phosphate]
[1]; rapid screening
  LCIC (lowest-complete-inhibition concentration), Selenastrum capricornutum: 100,000 nM
  LOEC (lowest-observed-effect concentration), Selenastrum capricornutum: 100,000 nM
[2]; rapid screening
  LCIC (lowest-complete-inhibition concentration), Oscillatoria perornata: 10,000 nM
  LOEC (lowest-observed-effect concentration), Oscillatoria perornata: 10,000 nM

## CN(C)CCCNc1cccc2c1C(=O)c1ccccc1C2=O.O=P(O)(O)O [DNA2-93-1, 1-amino-N-(propyl-3′-N,N-dimethylamino)-9,10-anthraquinone phosphate]
[1]; rapid screening
  LCIC (lowest-complete-inhibition concentration), Selenastrum capricornutum: 100,000 nM
  LOEC (lowest-observed-effect concentration), Selenastrum capricornutum: 100,000 nM
[2]; rapid screening
  LCIC (lowest-complete-inhibition concentration), Oscillatoria perornata: 1,000 nM
  LOEC (lowest-observed-effect concentration), Oscillatoria perornata: 1,000 nM

## COCCOc1ccc2c(c1)C(=O)c1ccccc1C2=O [DNA2-97-2, 2-(2-Methoxyethoxy)-9,10-anthraquinone]
[1]; rapid screening
  MIC: > 100 µM
  minimal effective concentration: > 100 µM
[2]; [3]
  MIC: 10 µM (≈ 2.82 µg/mL)
  minimal effective concentration: 10 µM

## O=C1c2ccccc2C(=O)c2cc(OCCOCCOCCO)ccc21 [DNA2-99-2, 2-[2-[2-(2-Hydroxyethoxy)ethoxy]ethoxy]-9,10-anthraquinone]
[1]; rapid screening
  MIC: > 100 µM
  minimal effective concentration: > 100 µM
[2]; [3]
  MIC: 10 µM (≈ 3.56 µg/mL)
  minimal effective concentration: 10 µM

## COCCOCCOc1ccc2c(c1)C(=O)c1ccccc1C2=O [DNA3-5-1, 2-[2-(2-Methoxyethoxy)ethoxy]-9,10-anthraquinone]
[1]; rapid screening
  MIC: > 100 µM
  minimal effective concentration: > 100 µM
[2]; [3]
  MIC: 10 µM (≈ 3.26 µg/mL)
  minimal effective concentration: 0.1 µM

## COCCOCCOc1cccc2c1C(=O)c1ccccc1C2=O [DNA3-7-1, 1-[2-(2-Methoxyethoxy)ethoxy]-9,10-anthraquinone]
[1]; rapid screening
  MIC: > 100 µM
  minimal effective concentration: > 100 µM
[2]; [3]
  MIC: 100 µM (≈ 32.6 µg/mL)
  minimal effective concentration: 10 µM

## COCCOCCOCCOc1ccc2c(c1)C(=O)c1ccccc1C2=O [DNA3-9-1, 2-[2-[2-(2-methoxyethoxy)ethoxy]ethoxy]-9,10-anthraquinone]
[1]; rapid screening
  MIC: > 100 µM
  minimal effective concentration: > 100 µM
[2]; [3]
  MIC: 10 µM (≈ 3.7 µg/mL)
  minimal effective concentration: 10 µM

Reference: patent US6949250B2, “Selective algaecides for control of cyanochloronta” (The United States of America as represented by the …, priority 2002, dated 2005)
